From the supplement of paper PMC10307832

Columns and labels:
Test in all cases: relative viability (nuclei count vs DMSO), 5 days (fraction); higher = more cells survive
[1] = compound: C=CC(=O)N1CCC[C@@H](n2nc(-c3ccc(Oc4ccccc4)cc3)c3c(N)ncnc32)C1 [Ibrutinib] + CC(=O)Nc1cccc(-n2c(=O)n(C3CC3)c(=O)c3c(Nc4ccc(I)cc4F)n(C)c(=O)c(C)c32)c1 [Trametinib] (partner 0.02 µM)
In short: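 The day after seeding in 1536-well plates, lung cancer cell lines were treated by pin tool with a single drug, or with a fixed anchor-drug dose together with five library-drug doses (not always all listed) in √10 steps. After 5 days, a combined fix-and-stain solution (final 0.05% Triton X-100, 1% formaldehyde, 1 ug/ml Hoechst) was added. Nuclei counted on 4× images gave relative viability as treated counts over vehicle counts, reported as the median of duplicate plates.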

[2] = compound: C=CCc1cccc(/C=N/NC(=O)CN2CCN(Cc3ccccc3)CC2)c1O [PAC-1]
In short: (§1)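 A plate was accepted only when its control CV was below 25% and the cells had doubled at least once. Viability is defined from nuclear counts as treated wells divided by vehicle wells, with the median taken across plates. That median covers lung cancer cell lines grown in 1536-well plates, dosed by pinning at five √10-spaced library-drug concentrations, and counted in MetaXpress from 4× Hoechst images after 5 days.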

[3] = compound: C=CC(=O)N1CCC[C@@H](n2nc(-c3ccc(Oc4ccccc4)cc3)c3c(N)ncnc32)C1 [Ibrutinib]
In short: as §1

[4] = compound: C=CC(=O)Nc1cc(-n2c(=O)ccc3cnc4ccc(-c5ccc(NS(C)(=O)=O)cc5)cc4c32)ccc1C [BMX-IN-1]
In short: as §1

NCI-H520
relative viability ([1]; first compound 0.005 µM): 0.486
relative viability ([1]; first compound 0.01581 µM): 0.651
relative viability ([1]; first compound 0.05 µM): 0.653
relative viability ([1]; first compound 0.1581 µM): 0.794
relative viability ([1]; first compound 0.5 µM): 0.621
relative viability ([2]; 0.02 µM): 0.964
relative viability ([2]; 0.06325 µM): 0.957
relative viability ([2]; 0.2 µM): 0.899
relative viability ([2]; 2 µM): 0.99
relative viability ([3]; 0.005 µM): 0.874
relative viability ([3]; 0.01581 µM): 0.791
relative viability ([3]; 0.05 µM): 0.991
relative viability ([3]; 0.1581 µM): 1
relative viability ([3]; 0.5 µM): 0.839
relative viability ([4]; 0.02 µM): 1.26
relative viability ([4]; 0.2 µM): 1.02
relative viability ([4]; 0.6325 µM): 1.1
relative viability ([4]; 2 µM): 1.04

SW 1573
relative viability ([1]; first compound 0.01581 µM): 0.462
relative viability ([1]; first compound 0.05 µM): 0.618
relative viability ([1]; first compound 0.1581 µM): 0.547
relative viability ([1]; first compound 0.5 µM): 0.661
relative viability ([2]; 0.02 µM): 0.965
relative viability ([2]; 0.06325 µM): 1.03
relative viability ([2]; 0.2 µM): 1.01
relative viability ([2]; 2 µM): 1.15
relative viability ([3]; 0.005 µM): 0.912
relative viability ([3]; 0.01581 µM): 0.924
relative viability ([3]; 0.1581 µM): 0.94
relative viability ([3]; 0.5 µM): 0.974
relative viability ([4]; 0.02 µM): 1.13
relative viability ([4]; 0.2 µM): 1.08
relative viability ([4]; 0.6325 µM): 1.09
relative viability ([4]; 2 µM): 0.904

201T
relative viability ([1]; first compound 0.005 µM): 0.721
relative viability ([1]; first compound 0.01581 µM): 0.708
relative viability ([1]; first compound 0.05 µM): 0.695
relative viability ([1]; first compound 0.1581 µM): 0.712
relative viability ([1]; first compound 0.5 µM): 0.683
relative viability ([2]; 0.02 µM): 0.959
relative viability ([2]; 0.06325 µM): 1.02
relative viability ([2]; 0.2 µM): 1.01
relative viability ([2]; 2 µM): 0.981
relative viability ([3]; 0.005 µM): 0.979
relative viability ([3]; 0.01581 µM): 0.992
relative viability ([3]; 0.05 µM): 0.964
relative viability ([3]; 0.1581 µM): 0.876
relative viability ([3]; 0.5 µM): 0.955
relative viability ([4]; 0.02 µM): 1.11
relative viability ([4]; 0.2 µM): 0.996
relative viability ([4]; 0.6325 µM): 1.05
relative viability ([4]; 2 µM): 1.03

NCI-H1437
relative viability ([1]; first compound 0.005 µM): 0.53
relative viability ([1]; first compound 0.01581 µM): 0.51
relative viability ([1]; first compound 0.05 µM): 0.555
relative viability ([1]; first compound 0.1581 µM): 0.491
relative viability ([1]; first compound 0.5 µM): 0.624
relative viability ([2]; 0.02 µM): 0.988
relative viability ([2]; 0.06325 µM): 1.01
relative viability ([2]; 0.2 µM): 0.96
relative viability ([2]; 2 µM): 0.814
relative viability ([3]; 0.005 µM): 0.957
relative viability ([3]; 0.01581 µM): 0.975
relative viability ([3]; 0.05 µM): 0.981
relative viability ([3]; 0.1581 µM): 0.974
relative viability ([3]; 0.5 µM): 1.02
relative viability ([4]; 0.02 µM): 1.11
relative viability ([4]; 0.2 µM): 0.984
relative viability ([4]; 0.6325 µM): 1.03
relative viability ([4]; 2 µM): 1.03

NCI-H1975
relative viability ([1]; first compound 0.005 µM): 0.274
relative viability ([1]; first compound 0.01581 µM): 0.303
relative viability ([1]; first compound 0.05 µM): 0.287
relative viability ([1]; first compound 0.1581 µM): 0.302
relative viability ([1]; first compound 0.5 µM): 0.213
relative viability ([2]; 0.02 µM): 0.97
relative viability ([2]; 0.06325 µM): 0.957
relative viability ([2]; 0.2 µM): 0.994
relative viability ([2]; 2 µM): 1.08
relative viability ([3]; 0.005 µM): 0.906
relative viability ([3]; 0.01581 µM): 0.781
relative viability ([3]; 0.05 µM): 0.827
relative viability ([3]; 0.1581 µM): 0.91
relative viability ([3]; 0.5 µM): 0.419
relative viability ([4]; 0.02 µM): 1.17
relative viability ([4]; 0.2 µM): 0.965
relative viability ([4]; 0.6325 µM): 1.14
relative viability ([4]; 2 µM): 0.872

RERF-LC-KJ
relative viability ([1]; first compound 0.005 µM): 0.956
relative viability ([1]; first compound 0.01581 µM): 0.815
relative viability ([1]; first compound 0.05 µM): 1.09
relative viability ([1]; first compound 0.1581 µM): 0.822
relative viability ([1]; first compound 0.5 µM): 0.742
relative viability ([2]; 0.02 µM): 1.08
relative viability ([2]; 0.06325 µM): 1
relative viability ([2]; 0.2 µM): 0.947
relative viability ([2]; 2 µM): 0.942
relative viability ([3]; 0.005 µM): 1.03
relative viability ([3]; 0.01581 µM): 0.85
relative viability ([3]; 0.05 µM): 0.942
relative viability ([3]; 0.1581 µM): 0.989
relative viability ([3]; 0.5 µM): 0.849
relative viability ([4]; 0.02 µM): 1.14
relative viability ([4]; 0.2 µM): 1.04
relative viability ([4]; 0.6325 µM): 1.03
relative viability ([4]; 2 µM): 1.03
